Assay [1] relates to Triticum aestivum cv. Hereward leaf segments. The assay can be described thus: Senescence bioassay on detached wheat leaf segments (chlorophyll retention). As to conditions: for maximum effective concentration: 96 h in the dark; for activity (%) [10^−4 mol · l^−1 BAP = 100%]: at maximum effective concentration. The protocol: Seeds of winter wheat, Triticum aestivum cv. Hereward, were washed under running water for 24 hours and then sown on vermiculite soaked with Knop's solution. They were placed in the growth chamber at 25° C. with a 16/8 h light period at […]. After 7 days, the first leaf was fully developed and the second leaf had started to grow. A tip section of the first leaf, approximately 35 mm long, was removed from 5 seedlings and trimmed slightly to a combined weight of 100 mg. The basal ends of the five leaf tips were placed in the wells of a microtiter polystyrene plate containing 150 μL of the tested derivative solution each. The entire plate was inserted into a plastic box lined with paper tissues soaked in distilled water to prevent leaf sections from drying out. After 96 h incubation in the dark at 25° C., the leaves were removed and chlorophyll extracted by heating at 80° C. for 10 min in 5 mL of 80% ethanol (v/v). The sample volume was then restored to 5 mL by the addition of 80% ethanol (v/v). The absorbance of the extract was recorded at 665 nm. In addition, chlorophyll extracts from fresh leaves and leaf tips incubated in deionised water were measured. The results are means of five replicates and the entire test was repeated twice. […] The compounds to be tested were dissolved in dimethylsulfoxide (DMSO) and the solution brought up to 10^−3 M with distilled water. […] The activity obtained for 10^−4 M of BAP was postulated as 100%. Kinetin was used as the second standard. Newly prepared compounds generally exceeded the efficiency of standard (BAP) by 10% of its activity (Tab. 5).

Assay [2] relates to Normal human dermal fibroblasts (NHDF). The experiment in a line: In vitro UVA/UVB photoprotection test on NHDF (Example 9). In kind it is cell-based. From the text:
Normal human dermal fibroblasts (NHDF) were used as an in vitro model. Cells were isolated from tissue specimens obtained from healthy patients undergoing plastic surgery at the Department of Plastic and Aesthetic Surgery (University Hospital Olomouc). The use of skin tissue was in accordance with the Ethics Committee of the University Hospital and Faculty of Medicine and Dentistry, Palacky University, Olomouc and all patients signed written informed consent. Fibroblasts were used between the 2nd and 4th passage. For all experiments the fibroblasts were seeded onto 96-well plates at a density of 0.8×10^5 cells/ml (0.2 ml per well) of cultivation medium (DMEM supplemented with fetal calf serum (10%, v/v), penicillin ([…]) and streptomycin (100 U/ml)). Test substances included compounds number 1, 3, 9, 15 and 20. Compounds were dissolved in DMSO and then diluted in serum free medium (DMEM supplemented with penicillin ([…]) and streptomycin (100 U/ml)). After 24 h incubation was cultivation medium changed to serum free medium containing test compound or DMSO (negative control). The final applied concentrations range was 3.9-31.3 μmol/ll. As a control serum free medium supplemented with appropriate concentration of DMSO (0.5%, v/v) was used. Rosmarinic acid was used as positive control. Each test compound was in parallel applied on two 96-well plates with NHDF. After 60 minutes incubation medium with test compound was discarded, cells were washed two-times with PBS and PBS supplemented with glucose (1 mg/ml) was applied. To study UVA photoprotection, a plate was exposed to a cytotoxic dose of UVA radiation (7.5 J/cm^2) using a solar simulator SOL 500 (Dr. Hoenle Technology, Germany) equipped with a H1 filter transmitting wavelengths of 320-400 nm. To study UVB photoprotection, a plate was exposed to a cytotoxic dose of UVB radiation (150 mJ/cm^2) using the solar simulator equipped with a H2 filter transmitting wavelengths of 295-320 nm. Intensity of UVA or UVB radiation was evaluated before each irradiation by UVA- or UVB-meter. Control (non-irradiated) plates were for the period of irradiation incubated in dark. After UVA or UVB exposure PBS with glucose was discarded and serum free medium was applied. After 24 hours (37° C., 5% CO2) cell damage was evaluated by neutral red (NR) incorporation into viable cells. Medium was discarded and NR solution (0.03% w/v, PBS) was applied. After 60 minutes NR solution was discarded, cells were fixed with a mixture of formaldehyde (0.5%, v/v) and CaCl2 (1%, m/v) in ratio 1:1 and then NR was dissolved in methanol (50%, v/v) with acetic acid (1%, v/v). After 5 minutes of intensive shaking absorbance was measured at 540 nm. Experiments were performed in four independent repetitions with use of cells from four donors to minimize individual sensitivity of donor cells. Photoprotective effect was evaluated by comparison of experimental data (absorbance) of test compounds with a positive control and a negative control (according to the following equation:
[formula] • As . . . absorbance of sample (cells pre-incubated with test compounds in serum free medium and irradiated) • Anc . . . absorbance of negative control (cells pre-incubated with s DMSO in serum free medium and non-irradiated=incubated in dark) • Apc . . . absorbance of positive control (cells pre-incubated with s DMSO in serum free medium and irradiated)

Another assay deals with HaCaT. The experiment in a line: In vitro UVA/UVB photoprotection test on HaCaT. It counts as cell-based, human. As to the method:
Spontaneously Immortalized Aneuploid Human Keratinocyte Cell Line (HaCaT) was bought from CLS (Eppeheim, Germany) and used as an in vitro model. For all experiments the keratinocytes were seeded onto 96-well plates at a density of 1.6×10^5 cells/ml (0.2 ml per well) of growth medium (DMEM supplemented with fetal bovine serum (10%), penicillin ([…]) and streptomycin (100 U/ml)).
Test substances included compounds number 3, 9, 15 and 20. Compounds were dissolved in DMSO and then diluted in serum free medium (DMEM supplemented penicillin ([…]) and streptomycin (100 U/ml)). After 24 h incubation was growth medium changed to serum free medium containing test compounds. The final applied concentration range was 3.9-31.25 μmol/l. As a control, serum free medium supplemented with appropriate concentration of DMSO (0.5%, v/v) was used. Rosmarinic acid was used as positive control. After 60 minutes incubation with test compounds medium was discarded, cells were washed two-times with PBS and PBS supplemented with glucose (1 mg/ml) was applied. To study UVA photoprotection, a plate was exposed to a cytotoxic dose of UVA radiation (10 J/cm2) using a solar simulator SOL 500 (Dr. Hoenle Technology, Germany) equipped with a H1 filter transmitting wavelengths of 320-400 nm. To study UVB photoprotection, a plate was exposed to a cytotoxic dose of UVB radiation (150 mJ/cm2) using the solar simulator equipped with a H2 filter transmitting wavelengths of 295-320 nm. Intensity of UVA or UVB radiation was evaluated before each irradiation by UVA- or UVB-meter. Control (non-irradiated) plates were for the period of irradiation incubated in dark. After UVA or UVB exposure PBS with glucose was discarded and serum free medium was applied. After 24 hours (37° C., 5% CO2) cell damage was evaluated by neutral red (NR) incorporation into viable cells. Medium was discarded and NR solution (0.03% w/v, PBS) was applied. After 60 minutes NR solution was discarded, cells were fixed with a mixture of formaldehyde (0.5%, v/v) and CaCl2 (1%, m/v) in ratio 1:1 and then NR was dissolved in methanol (50%, v/v) with acetic acid (1%, v/v).
After 5 minutes of intensive shaking absorbance was measured at 540 nm. Experiments were performed in four independent repetitions with use of […] to minimize individual sensitivity of donor cells. Photoprotective effect was evaluated by comparison of experimental data (absorbance) of test compounds with a positive control and a negative control (according to the following equation: […]
As . . . absorbance of sample (cells pre-incubated with test compounds in serum free medium and irradiated)
Anc . . . absorbance of negative control (cells pre-incubated with s DMSO in serum free medium and non-irradiated=incubated in dark)
Apc . . . absorbance of positive control (cells pre-incubated with s DMSO in serum free medium and irradiated)

Assay [3] deals with skin fibroblasts BJ and keratinocytes HaCaT. The experiment in a line: MTT in vitro cytotoxicity test for skin cells. It counts as cell-based. As to conditions: Homo sapiens; 72 hour treatment; table does not say which cell line (BJ, HaCaT). As to the method: MTT assay is a standard test of toxicity based on photometric measurement of the ability of metabolically active cells to reduce MTT (3-(4,5-dimethylthiazol-2-yl)-2,5-diphenyltetrazolium bromide). Using the assay, the effects of 72 hour treatments with several concentrations of the compounds (sixfold dilution, maximal concentration=50 microM) on viability of skin fibroblasts BJ and keratinocytes HaCaT were evaluated. About 5,000 cells were seeded per well of a 96-well plate 24 hours before the treatment. DMSO vehiculum was used as a negative control. After 72 hour treatment, new medium with MTT (Sigma, M2128) was added to a final concentration of 0.5 mg/ml. After 3 hours, medium was removed and resulting formazan in the cells was dissolved in DMSO. The absorbance was measured at 570 nm (640 nm reference wavelength). The IC50 values were calculated from the dose-response curves. 6-furfurylaminopurine riboside was used as positive controls.

Some results are limits rather than exact numbers.

For `c1ccc(CNc2ncnc3nc[nH]c23)cc1` [BAP, 6-benzylaminopurine, reference compound], in assay [1], the maximum effective concentration was 10^−4 mol · l^−1 and the “activity (%) [10^−4 mol · l^−1 BAP = 100%]” value came to 100 ± 1%.
Turning to `c1coc(CNc2ncnc3nc[nH]c23)c1` [kinetin, 6-furfurylaminopurine, reference compound], in assay [1], the maximum effective concentration was 10^−4 mol · l^−1 and the “activity (%) [10^−4 mol · l^−1 BAP = 100%]” value amounted to 98 ± 4%.
On the same counts, the results for `Cc1ccsc1CNc1ncnc2c1ncn2C1CCCO1` (centres unmarked) [Compound 10, 6-(3-methylthiophen-2-ylmethylamino)-9-(tetrahydrofuran-2-yl)purine] are 10^−4 mol · l^−1 and 110 ± 7%.
For `O=C(/C=C/c1ccc(O)c(O)c1)O[C@H](Cc1ccc(O)c(O)c1)C(=O)O` [RA, rosmarinic acid, reference compound], the “Protection (%)” value in assay [2] (UVA 7.5 J/cm^2, 3.9 μmol/l) is listed as 6.1%; in assay [2] (UVA 7.5 J/cm^2, 7.8 μmol/l) it was 14.7%; in assay [2] (UVA 7.5 J/cm^2, 15.6 μmol/l), 17.0%; in assay [2] (UVA 7.5 J/cm^2, 31.3 μmol/l), 19.3%; in assay [2] (UVB 150 mJ/cm^2, 3.9 μmol/l) it was 36.8%; in assay [2] (UVB 150 mJ/cm^2, 7.8 μmol/l), 50.9%. The “Protection (%)” value in assay [2] (UVB 150 mJ/cm^2, 15.6 μmol/l) is given as 52.9%; in assay [2] (UVB 150 mJ/cm^2, 31.3 μmol/l), 67.7%; in the assay with HaCaT (Table 17: UVA-induced damage (10 J/cm2), 3.9 μmol/l), 23.6%; with HaCaT (Table 17: UVA-induced damage (10 J/cm2), 7.8 μmol/l), 42.3%; with HaCaT (Table 17: UVA-induced damage (10 J/cm2), 15.6 μmol/l), 36.2%; in the assay with HaCaT (Table 17: UVA-induced damage (10 J/cm2), 31.3 μmol/l), 44.0%. The “Protection (%)” value in the assay with HaCaT (Table 18: titled UVA-induced damage, 3.9 μmol/l) is listed as 22%; in the assay on HaCaT (Table 18: titled UVA-induced damage, 7.8 μmol/l), 48.5%; with HaCaT (Table 18: titled UVA-induced damage, 15.6 μmol/l) it was 55.7%; in the assay with HaCaT (Table 18: titled UVA-induced damage, 31.3 μmol/l), 54.3%.
As usually defined, the IC50 is the concentration at which inhibition is half-maximal. For the compound `OC[C@H]1OC(n2cnc3c(NCc4ccco4)ncnc32)[C@H](O)[C@@H]1O` (some centres unmarked) [6-furfurylamino-9-ribosylpurine, reference compound], in assay [3], the IC50 was not above 3 µM.
